How the values were obtained:
[1] = test system: MOG35-55-induced EAE mice; experiment: MOG35-55-induced EAE mouse model, daily intraperitoneal ISP; type: in vivo
Description: For induction of EAE, C57BL6/J female mice at 10-week-old of age were immunized with MOG35-55 together with complete Freund's adjuvant emulsion (Hooke Laboratories, MOG35-55 EAE Induction kit, EK-2110) according to the manufacturers' instruction. Using the EAE Induction Kit result in 98% successful disease induction. All EAE animals were monitored daily and scored using a clinical scale from 0 to 5 (0: no abnormality; 1: limp tail; 2: limp tail and hind legs weakness; 3: limp tail and complete paralysis of hind legs; 4, hind leg and partial front leg paralysis; 5: moribund. Once EAE mice scored for I or 3, they were randomly recruited into treatment group and vehicle group. For treatment group, 5-7 mice were given daily intraperitoneal injections of ISP (20 μg/day), or 5% DMSO in saline, 100 μl) for Vehicle group. Experiments were blinded and animals were scored daily. For ISP Onset: ISP treatment was given at onset of sickness scored by clinical scale. For ISP Peak: ISP treatment was given at peak of sickness scored by clinical scale
LFB staining was performed according to the manufacturer's instruction (#26681, Electron Microscopy Sciences). For spinal cord sections, 20 μm coronal sections were incubated in LFB solution in 56° C. overnight and then rinsed sequentially with 95% alcohol and distilled water. The sections were then in 0.1% lithium carbonate solution and followed dehydration with a series of gradated ethanol, cleared with Histoclear and mounted. A set of serial matched sections were imaged and analyzed. Images (5 to 6 sections/animal) were captured under light microscope. The demyelinated areas (lack of LFB staining) were quantified using ImageJ software. For EAE sections, demyelinated areas were measured and represented as a percentage of total area of spinal cord. For sections of LPC model, lesion volumes were calculated by the lesion area from serial sections throughout the entire lesion based on the equation for volume of cylinder (V=lesion area×length of lesion).
Mice were anesthetized with avertin and perfusion with PBS and 4% paraformaldehyde (PFA). Brain or spinal cord were dissected and post-fixed in 4% PFA overnight at 4° C. and equilibrated in 20% sucrose. 20 μm-thick sections were pretreated with Reveal Decloaker Solution (RV 1000M, Biocare Medical) for antigen retrieval according to the manufacturer's instructions. After blocking, sections were incubated with primary antibodies overnight at 4° C. and followed by appropriate secondary antibodies conjugated with Alexa fluorescence 488 or 594. The following primary antibodies were used: MBP (SMI-99P, Covance, 1:300), NeuF200 (N4142, Sigma, 1:250), CS-56 (C8035, Sigma, 1:250), CAT301 (MAB5284, Millipore, 1:250), versican (AB 1032, Millipore, 1:250), Iba1 (019-19741, WAKO, 1:250), GFAP (MAB360, Millipore, 1:250), Olig2 (AB9610, Millipore, 1:250), CC1 (OP80, Millipore, 1:250). For each staining, at least 3 individual animals/group were examined and images were captured with a Leica DFC500 fluorescence microscope. Staining was quantified using Image J software (US National Instisutes of Health, USA). Fluorescence intensity was calculated as percentages of the mean value of the naïve controls.
For ultrastructural analyses of myelination, anesthetized animals were perfused with 2% glutaraldehyde/4% paraformaldehyde in 0.1 M sodium carcodylate buffer, PH7.4 (Electron Microscopy Sciences). Lesioned areas of the LPC or EAE-induced spinal cords from ISP-treated or control animals were dissected and post-fixed in 1% OsO4 for 2 hrs. Coronal sections ([…]) of spinal cord or brain containing corpus callosum were prepared (Leica, Vibratome), dehydrated, stained with saturated uranyl acetate and embedded in a Poly/Bed812 resin (Polysciences Inc.). The 1 μm-thick sections were cut and stained with toluidine blue, and matched areas were selected for EM analysis. […]

[2] = test system: OPC conditioned media protease activity; experiment: Conditioned media protease activity assay (EnzChek, quenched casein); type: cell-based, mouse; settings: OPCs treated with 2.5 μM ISP, vs vehicle and SISP
Experimental: Around 1×10^6 OPCs were plated per well on PLL, 1 μg/mL laminin, and 2 μg/mL aggrecan coated 6-well plates and treated with vehicle, 2.5 μM ISP or SISP for 2 days at 37° C. CM was collected, cell-strained, and placed on ice until assayed. ThermoFisher Protease Assay Kit (E66383, EnzChek, ThermoFisher) was used to assay protease activity. 1× of the EnzChek mixture was mixed 1:1 with the CM from each group and incubated at RT O/N with gentle shaking. 3 replicates were performed for each sample. Samples were analyzed using a spectrophotometer at 502/528 nm excitation and emission to assess cleaved and fluorescing casein. Fluorescence units reported have been blanked with EnzChek and cell culture media mixture.

MMP-10 = MMP-10 western blot of OPC conditioned media; type: cell-based, mouse; settings: OPC CM, 2.5 μM peptide, same as vehicle
Experimental: To assess MMP-2 or 10 in OPC CM or lysates, OPCs were incubated on precoated PLL, aggrecan, and laminin as described above. OPCs were treated with vehicle, 2.5 μM ISP or SISP for 2 days at 37° C. CM was then harvested and concentrated using Milipore Ultracel YM-C centrifugal filter units at max speed (Eppendorf Centrifuge […]) for 30 minutes at 4° C. […] of concentrated CM was loaded into each lane. OPC lysates were assessed using western blot techniques described below with […] protein loaded from each group. Tissue samples or cerebellar slices or purified OPC cells were homogenized with RIPA lysis buffer and protein concentration was determined by Pierce BCA protein assay kit according to the manufacture instruction (Thermo Fisher). Then, equal amounts of protein were loaded to 15% SDS-PAGE gels, and electrophoretically transferred to PVDF membranes (Millipore). The membranes were blocked in 0.1% TPBS buffer with 5% non-fat milk for 1h at room temperature and probed with indicated primary antibodies overnight at 4° C. and followed by secondary antibody conjugated to horseradish peroxidase (HRP). […] Enhanced chemiluminescence was performed with a West Pico Kit (Thermo Fisher) and detected by FluorChem E system (ProteinSimple, USA). The density of bands was quantified using ImageJ software (NIH).

[3] = 41 days following EAE induction

GRKKRRQRRRCDMAEHMERLKANDSLKLSQEYESI [ISP]
demyelination baseline (LFB) vs vehicle ([1]; 18 days following EAE induction): not significantly different | GFAP (reactive astrocytes) immunofluorescence [1, 3]: significant decreases | Iba1 (microglia/macrophages) immunofluorescence [1, 3]: significant decreases | time until functional recovery was initially observed ([1]; EAE ISP Onset group, ISP 20 μg/mouse daily i.p., days of ISP administration): 10 to 12 days | clinical score ([1]; EAE ISP Onset group, several animals, after 20-22 days of ISP (~33 days post immunization)): 0.5-1 | clinical score ([1]; EAE ISP Peak group, ISP started at peak of sickness): improved significantly | percentage of CC1+ oligodendrocytes in lesions ([1]; EAE animals, 41 days): significantly enhanced | number of myelinated/remyelinated axons, electron microscopy ([1]; EAE-lesioned spinal cord vs vehicle): increase of myelinated/remyelinated axons | MBP immunostaining ([1]; ISP for 41 days vs control EAE animals): denser | lesion size, LFB myelin staining ([1]; Onset treated animals, spinal cord): especially reduced | Arginase-1 (M2 microglia marker) immunostaining ([1]; spinal cord of EAE mice): increased M2 microglia | iNOS (M microglia marker) immunostaining ([1]; spinal cord of EAE mice): decreased M microglia | MBP expression, western blot ([1]; spinal cord tissue of EAE mice): restoration of MBP expression | CSPG (Cat301, aggrecan) immunostaining ([1]; thoracic spinal cord, 41 days post-induction): markedly decreased | protease activity (fluorescence A.U.) [2]: increased protease activity | MMP-10 secretion, western blot (MMP-10): equally low amounts
